{"source": "paper PMC3322358", "about": "(Chemistry & biology, 2008)", "origin": "cited, not measured here", "test_system": "CFTR", "conditions": "ref Muanprasat et al., 2004"}
{"smiles": "O=C(CNc1ccc2ccccc2c1)N/N=C/c1cc(Br)c(O)c(Br)c1O", "note": "[GlyH-101]", "values": [{"measurement": "time constant of CFTR channel block", "result": "8 to 10", "unit": "ms"}]}
